According to US20230414626A1, “INDUCTION OF FERROPTOSIS FOR CANCER THERAPY” (Memorial Sloan Kettering Cancer Center, priority 2020, published 2023):

Key:
mTORC1 activity = assay: Western blot of S6K phosphorylation (pT389 S6K); assay type: cell-based, human; conditions: RSL3 0.25 μM
Procedure: FIG. 7 A-J. PI3K-AKT-mTOR signaling regulates ferroptosis sensitivity. (A) Cells were treated as indicated. GDC-0941, 2 μM; MK-2206, 2 μM; RSL3, 1 μM; Fer-1, 1 μM. Lipid peroxidation was measured. (B) Cells were treated with indicated conditions. Torin, 1 μM; RSL3, 1 μM for MDA-MB-453 cells and 0.5 μM for BT474 cells; Fer-1, 1 μM. Cell death was measured. (C) Cells were treated with indicated conditions. RSL3, 10 μM for MCF cells and PC-3 cells, 5 μM for T47D cells, 1 μM for HepG2 cells; Torin, 1 μM; CCI-779, 0.5 μM. (D) Cells were treated as indicated. CCI-779, 0.5 μM; Torin, 1 μM; Fer-1, 1 μM. Cell death was staining by propidium iodide (PI) (red) or Sytox Green (green) (scale bar, 100 μm). (E-F) 3D spheroids for MDA-MB-453 cells and MCF7 cells were treated as indicated. CCI-779, 0.5 μM; RSL3, 1 μM for MDA-MB-453 cells and 5 μM for MCF7 cells; Fer-1, 1 μM. Top panels, cell death staining (scale bar, 100 m). Bottom panels, cell viability. (G) MDA-MB-453 cells were treated as indicated for 24 h. RSL3, 1 μM; CCI-779, 0.5 μM; GDC-0941, 2 μM; MK-2206, 2 μM; Dabrafenib, 2 μM; SCH772984, 2 μM; Fer-1, 1 μM. (H) Western blot was performed to detect RPTOR and RICTOR knockdown efficiency. (I) HT1080 cells and MDA-MB-231 cells (both with wild-type PI3K-AKT-mTOR pathway) were treated as indicated. RSL3, 0.1 μM for HT1080 and 0.25 μM for MDA-MB-231; Torin, 1 μM; CCI-779, 0.5 μM; Fer-1, 1 μM. Cell death was measured. (J) Two lines of PI3K-AKT-mTOR pathway wild-type cells (HT1080 and MDA-MB-231) and two lines of cells harboring activating mutation of the pathway (BT474 and MDA-MB-453) were treated as indicated. RSL3, 0.25 μM; Fer-1, 1 μM. Western blot was performed to detect the level of pT389 S6K.
Cell lysates were resolved on SDS-PAGE gels and transferred to a nitrocellulose membranes. The membranes were incubated in 5% skim milk for 1 hour at room temperature and then incubated with primary antibodies diluted in blocking buffer at 4° C. overnight. […]

[1] = test system: panel of human cancer cell lines with defined genetic mutations; assay: Sensitivity of cancer cell line panel to RSL3 (cell death, Sytox Green); assay type: cell-based; conditions: cancer cells carrying PIK3CA activating mutation or PTEN deletion; 24-h treatment
Procedure: FIG. 1 A-D. Oncogenic activation of the PI3K-AKT-mTOR signaling pathway confers resistance to ferroptosis. (A) Genetic background of the analyzed cancer cell lines and their sensitivity to RSL3. (B) Cells were seeded in 96-well plate, 2×10^4 cells per well and incubated overnight. Cell death was induced by 24-h treatment of RSL3 with indicated concentrations. Cell death were measured by Sytox Green staining, as detailed in Methods. (C) Indicated protein components in the PI3K-AKT pathway were detected by western blot in indicated cell types. […] Cell death was measured. […]
To investigate the functional interplay between ferroptosis and signaling pathways frequently mutated in cancer, we analyzed a panel of human cancer cell lines with defined genetic mutations. […]
Cells were seeded in plates at appropriate cell density and incubated overnight at 37° C. containing 5% C02, and then subjected to treatments as described in individual experiments. […] Culture plates were read by Cytation 5 at indicated time points. Percentage of cell death was calculated as Sytox Green-positive cell number over total cell number. For 3D spheroids, cell viability was determined a commercially available cell viability assay (Promega, Madison, WI, USA) following the manufacturer's instructions. […]

HT1080 cells = assay: Cell death quantification, PI3K-AKT-mTOR wild-type cells; assay type: cell-based, human; conditions: HT1080, wild-type PI3K-AKT-mTOR pathway; RSL3 0.1 μM; Torin 1 μM; CCI-779 0.5 μM
Procedure: (§1) FIG. 7 A-J. PI3K-AKT-mTOR signaling regulates ferroptosis sensitivity. (A) Cells were treated as indicated. GDC-0941, 2 μM; MK-2206, 2 μM; RSL3, 1 μM; Fer-1, 1 μM. Lipid peroxidation was measured. (B) Cells were treated with indicated conditions. Torin, 1 μM; RSL3, 1 μM for MDA-MB-453 cells and 0.5 μM for BT474 cells; Fer-1, 1 μM. Cell death was measured. (C) Cells were treated with indicated conditions. RSL3, 10 μM for MCF cells and PC-3 cells, 5 μM for T47D cells, 1 μM for HepG2 cells; Torin, 1 μM; CCI-779, 0.5 μM. (D) Cells were treated as indicated. CCI-779, 0.5 μM; Torin, 1 μM; Fer-1, 1 μM. Cell death was staining by propidium iodide (PI) (red) or Sytox Green (green) (scale bar, 100 μm). […] Cell death was measured. […]
(§2) Cells were seeded in plates at appropriate cell density and incubated overnight at 37° C. containing 5% C02, and then subjected to treatments as described in individual experiments. […] Culture plates were read by Cytation 5 at indicated time points. Percentage of cell death was calculated as Sytox Green-positive cell number over total cell number. For 3D spheroids, cell viability was determined a commercially available cell viability assay (Promega, Madison, WI, USA) following the manufacturer's instructions. Viability was calculated by normalizing ATP levels of samples to that of negative controls (spheroids in normal full media without treatment).

MDA-MB-231 cells = assay: as above; assay type: cell-based, human; conditions: MDA-MB-231, wild-type PI3K-AKT-mTOR pathway; RSL3 0.25 μM; Torin 1 μM; CCI-779 0.5 μM
Procedure: as §1, §2

MDA-MB-453 cells = assay: Cell death quantification (Sytox Green), RSL3-induced ferroptosis; assay type: cell-based, human; conditions: fatty acid 0.5 mM, RSL3 1 μM, CCI-779 0.5 μM
Procedure: (§3) FIG. 1 A-D. Oncogenic activation of the PI3K-AKT-mTOR signaling pathway confers resistance to ferroptosis. (A) Genetic background of the analyzed cancer cell lines and their sensitivity to RSL3. (B) Cells were seeded in 96-well plate, 2×10^4 cells per well and incubated overnight. Cell death was induced by 24-h treatment of RSL3 with indicated concentrations. Cell death were measured by Sytox Green staining, as detailed in Methods. (C) Indicated protein components in the PI3K-AKT pathway were detected by western blot in indicated cell types. (D) Cells were treated with or without PI3K inhibitor GDC-0941 (2 μM), AKT inhibitor MK-2206 (2 μM), RSL3 (1 μM), or ferroptosis inhibitor Ferrostatin-1 (Fer-1, 1 μM) as indicated for 12 h (BT474) or 24 h (MDA-MB-453). Cell death was measured. Indicators for P values (same in all other figures): ****, P≤0.0001; *** P≤0.001; **, P≤0.01; *, P≤0.05; ns, P>0.05
(§4) FIG. 2 A-E. mTORC1, instead of mTORC2, suppresses ferroptosis. (A) MDA-MB-453 and BT474 were treated with CCI-779 (0.5 μM), RSL3 (1 μM for MDA-MB-453 cells and 0.5 μM for BT474 cells), and Fer-1 (1 μM) as indicated. (B) Cells were seeded in 6-well plate, 4×10^5 cells per well and incubated overnight. MDA-MB-453 and BT474 cells were treated as indicated. CCI-779, 0.5 μM; RSL3, 1 μM for MDA-MB-453 cells and 0.5 μM for BT474 cells; Fer-1, 1 μM. Cells were stained with 5 μM C1I-BODIPY followed by flow cytometry after 8 h-treatment. (C) 3D spheroids were treated as indicated. CCI-779, 0.5 μM; RSL3, 0.5 μM; Fer-1, 1 μM. Top panel, dead cells were stained by SYTOX Green (scale bar, 100 μm). Bottom panel, cell viability was assayed by measuring cellular ATP levels. (D) Cells expressing shRNAs targeting RPTOR or RICTOR were treated as indicated. CCI-779, 0.5 μM; RSL3, 0.5 μM; Fer-1, 1 μM. (E) Lipid peroxidation of samples as in panel D were measured.
(§5) FIG. 5 A-H. SREBP1 protects cells from ferroptosis through SCD1 activity. (A) The expression of SREBP1, and its targets SCD1, FASN, and ACACA, in control and SREBF1-sgRNA cells were detected by western blot. (B) The mRNA level of SREPF1 and its targets gene SCD were measured by RT-PCR. (C) Cells were pretreated with or without 5 μM CAY10566 overnight, and then subjected to the indicated treatments. RSL3, 0.5 μM for BT474 cells and 1 μM for MDA-MB-453 cells; CAY10566, 5 μM; Fer-1, 1 μM. (D) Cells expressing control or SCD-sgRNA were treated as indicated. RSL3, 1 μM for MDA-MB-453 cells and 0.5 μM for BT474 cells; Fer-1, 1 μM. (E) 3D spheroids derived from BT474 cells harboring control or SCD-sgRNA were treated as indicated. RSL3, 0.5 μM; CCI-779, 0.5 μM; Fer-1, 1 μM. Left, cell death staining (scale bar, 100 m). Right, cell viability. (F) SCD1 was overexpressed in BT474 cells and determined by western blot. Cells were treated as indicated. RSL3, 0.5 μM; CCI-779, 0.5 μM. (G) 3D spheroids derived from BT474 cells with control or SCD1 overexpression were treated as indicated. RSL3, 0.5 μM; CCI-779, 0.5 μM; Fer-1, 1 μM. Left, cell death staining (scale bar, 100 m). Right, cell viability. (H) Cells were treated as indicated. RSL3, 0.5 μM for BT474 and 1 μM for MDA-MB-453; CCI-779, 0.5 μM; Oleic acid (OA), 0.5 mM; stearic acid (SA), 0.5 mM.
(§6) FIG. 7 A-J. PI3K-AKT-mTOR signaling regulates ferroptosis sensitivity. (A) Cells were treated as indicated. GDC-0941, 2 μM; MK-2206, 2 μM; RSL3, 1 μM; Fer-1, 1 μM. Lipid peroxidation was measured. (B) Cells were treated with indicated conditions. Torin, 1 μM; RSL3, 1 μM for MDA-MB-453 cells and 0.5 μM for BT474 cells; Fer-1, 1 μM. Cell death was measured. (C) Cells were treated with indicated conditions. RSL3, 10 μM for MCF cells and PC-3 cells, 5 μM for T47D cells, 1 μM for HepG2 cells; Torin, 1 μM; CCI-779, 0.5 μM. (D) Cells were treated as indicated. CCI-779, 0.5 μM; Torin, 1 μM; Fer-1, 1 μM. Cell death was staining by propidium iodide (PI) (red) or Sytox Green (green) (scale bar, 100 μm). (E-F) 3D spheroids for MDA-MB-453 cells and MCF7 cells were treated as indicated. […]

BT474 cells = assay: as above; assay type: cell-based, human; conditions: fatty acid 0.5 mM, RSL3 0.5 μM, CCI-779 0.5 μM
Procedure: as §3, §4, §5, §6

[2] = wild-type cells (HT1080 and MDA-MB-231), Fer-1 1 μM

Compound | mTORC1 activity as measured by S6K phosphorylation (mTORC1 activity; cells harboring pathway mutation (BT474 and MDA-MB-453)) | mTORC1 activity as measured by S6K phosphorylation (mTORC1 activity; [2]) | sensitivity to ferroptosis induction by RSL3 [1] | ferroptosis induction (cell death) (HT1080 cells) | ferroptosis induction (cell death) (MDA-MB-231 cells) | ferroptosis resistance upon treatment of CCI-779 plus RSL3 (fatty acid supplementation) (MDA-MB-453 cells) | ferroptosis resistance upon treatment of CCI-779 plus RSL3 (fatty acid supplementation) (BT474 cells)
COC(=O)c1ccc([C@@H]2c3[nH]c4ccccc4c3C[C@@H](C(=O)OC)N2C(=O)CCl)cc1 [RSL3] | retained active mTORC1 | inhibited | more resistant | sufficient to induce ferroptosis | sufficient to induce ferroptosis | – | –
CCOC(=O)c1ccc(NC2CCCCC2)c(N)c1 [ferrostatin-1] | – | prevented RSL3-triggered inactivation of mTORC1 activity | – | – | – | – | –
CCCCCCCC/C=C\CCCCCCCC(=O)O [oleate acid] | – | – | – | – | – | resulted in ferroptosis resistance | resulted in ferroptosis resistance
CCCCCC/C=C\CCCCCCCC(=O)O [palmitoleic acid] | – | – | – | – | – | resulted in ferroptosis resistance | resulted in ferroptosis resistance
